Assay results published in patent publication US20110139152A1, “ANTIBIOTIC MICROPARTICLES FOR INHALATION” (Chiesi Farmaceutici S.p.A., priority 2009, published 2011).

Experiment: Aerosol performance by laser diffraction (Spraytec with inhalation cell, Monodose inhaler)
Type: physicochemical
Details: mean
Experimental: The aerosol performance of the microparticles of the present invention were evaluated by laser diffraction (Spraytec, Malvern Instruments, Worcestershire, UK) equipped with an inhalation cell attachment. Approximate 30 mg (or 15 mg in later tests) of each powder was loaded into size 3 HPMC capsules (Capsugel, Peapack, N.J., USA). Before the aerosolization, a stainless steel pin punched each end of the capsule allowing powders to be released from the capsule by providing two holes with diameter about 1 mm. Each capsule was aerosolized using a Monodose inhaler device (Miat S.p.A., Milan, Italy) at flow rate of 60 and 90 L/min. All measurements were made on four replicates at room temperature (20° C., 50% RH). Each measurement was performed over 4 s.
The device retention was calculated as a percentage of powder left both in the capsules and in the inhalers to the total load. The fine particle fraction (FPF) was defined as the amount of drug particle smaller than 5.4 μm as a percentage of the powder emitted from inhaler device.
It should be noted that all powders were tested after removing large agglomerates by gently passing the powders through a 250 μm sieve.
To further improve both the emitted dose and FPF of the mechano-fused microparticles with lower contents of MgSt, e.g. between 0.5% and 1%, loose agglomeration was applied by vibrating powders between two sieves of 180 and 710 μm.
Prior to this sieving process, powders were tumbled to encourage formation of loose agglomerates.

[1] = 90 L/min, loosely agglomerated drug powders (tumbled, vibrated between sieves of 180 and 710 μm) versus unsieved

<5.4 μm (%) (fine particle fraction, FPF) (90 L/min air flow, Monodose inhaler, percentage of the powder emitted, powders passed through 250 μm sieve): 32.58%
<5.4 μm (%) (fine particle fraction, FPF) (90 L/min air flow, Monodose inhaler, percentage of the powder emitted, powders passed through 250 μm sieve, listed as untreated drug powder): around 30%
Emitted dose (%) (90 L/min air flow, Monodose inhaler, size 3 HPMC capsules, powders passed through 250 μm sieve): 70.77%
<5.4 μm (%) (fine particle fraction, FPF) [1]: 32.58%
Emitted dose (%) [1]: 70.77%
SMILES: NC[C@H]1O[C@H](O[C@H]2[C@H](O)[C@@H](O[C@H]3O[C@H](CO)[C@@H](O)[C@H](N)[C@H]3O)[C@H](N)C[C@@H]2N)[C@H](N)C[C@@H]1O [TMC-raw, (2S,3R,4S,5S,6R)-4-amino-2-{[(1S,2S,3R,4S,6R)-4,6-diamino-3-{[(2R,3R,5S,6R)-3-amino-6-(aminomethyl)-5-hydroxyoxan-2-yl]oxy}-2-hydroxycyclohexyl]oxy}-6-(hydroxymethyl)oxane-3,5-diol]
